# Values of other authors, collected in patent publication US20090048181A1, “Combination therapy with glatiramer acetate and n-acetylcysteine for the treatment of multiple sclerosis” (priority 2004, published 2009).
# Tests used:
# [1] = system: relapsing-remitting multiple sclerosis; details: daily subcutaneous injections, 20 mg/injection
# [2] = system: EAE, a murine model of multiple sclerosis
# TNF-α = details: ten human patients suffering from multiple sclerosis; efficacy could not be ascertained
Compound,"appearance of ""black holes"" [1]",appearance of new lesions by magnetic resonance imaging (MRI) [1],progression of disability [1],relapse rates [1],"induction of EAE ([2]; SJL/J mice, oral administration)","effect in animals with established EAE ([2]; established EAE, correlated with treatment in a dose-related manner)",TNF-α level (TNF-α)
"L-glutamic acid polymer with L-alanine, L-lysine and L-tyrosine, acetate (salt) [glatiramer acetate]",reduce,reduce,reduce,reduce,–,–,–
CC(=O)N[C@@H](CS)C(=O)O [N-acetylcysteine],–,–,–,–,attenuated,improvement,elevation
